Biological target: T1, interaction between VCAM-1 and VLA-4 (Homo sapiens, UniProt P05556+P13612)
T1 construct: supplied in their natural form as surface molecules on human U937 cells; host or cells: human U937 cells (VLA-4, endogenous); the partner hVCAM-1(1-3)-IgG was made in house in transfected COS cells (ATCC CRL1651) and used as culture supernatant
Assay: U937/VCAM-1 cell adhesion test (adhesion of U937 cells to hVCAM-1(1-3)-IgG)
Format: cell-based
Conditions: inhibition of adhesion of human U937 cells (ATCC CRL 1593) to hVCAM-1(1-3)-IgG
From the text: A) U937/VCAM-1 Cell Adhesion Test
The test method used for the activity of the compounds of the formula I on the interaction between VCAM-1 and VLA-4 is the assay described below, which is specific for this interaction. The cellular binding components, that is the VLA-4 integrins, are supplied in their natural form as surface molecules on human U937 cells (ATCC CRL 1593), which belong to the leukocytes group. The specific binding components used are genetically engineered recombinant soluble fusion proteins, consisting of the extracytoplasmic domain of human VCAM-1 and the constant region of a human immunoglobulin of the subclass IgG1.
Assay for the Measurement of the Adhesion of U937 Cells (ATCC CRL 1593) to hVCAM-1 (1-3)-IgG
1. Preparation of Human VCAM-1(1-3)-IgG and Human CD4-IgG
A genetic construct for the expression of the extracellular domain of human VCAM-1, combined with the genetic sequence of the heavy chain of human immunoglobulin IgG1 (hinge, CH2 and CH3 regions) (from Brian Seed, Massachusetts General Hospital, Boston, USA; cf. Damle and Aruffo, Proc. Natl. Acad. Sci. USA 1991, 88, 6403), was employed. The soluble fusion protein hVCAM-1(1-3)-IgG contained the three aminoterminal extracellular immunoglobulin-like domains of human VCAM-1 (Damle and Aruffo, Proc. Natl. Acad. Sci. USA 1991, 88, 6403). CD4-IgG (Zettlmeissl et al., DNA and Cell Biology 1990, 9, 347) served as a fusion protein for negative controls. The recombinant proteins were expressed as soluble proteins after DEAE/dextran-mediated DNA transfection in COS cells (ATCC CRL1651) according to standard procedures (Ausubel et al., Current protocols in molecular biology, John Wiley & Sons, Inc., 1994).
2. Assay for the Measurement of the Adhesion of U937 Cells to hVCAM-1(1-3)-IgG
2.1 96-well microtiter test plates (Nunc Maxisorb) were incubated at room temperature for 1 hour with 100 μl/well of a goat-anti-human IgG antibody solution (10 μg/ml in 50 mM tris, pH 9.5). After removal of the antibody solution, washing was carried out once with PBS.
2.2 150 μl/well of a blocking buffer (1% BSA in PBS) were incubated on the plates at room temperature for 0.5 hour. After removal of the blocking buffer, washing was carried out once with PBS.
2.3 100 μl per well of a cell culture supernatant of transfected COS cells were incubated on the plates at room temperature for 1.5 hours. The COS cells were transfected with a plasmid which codes for the three N-terminal immunoglobulin-like domains of VCAM-1, coupled to the Fc portion of human IgG1 (hVCAM-1 (1-3)-IgG). The content of hVCAM-1(1-3)-IgG was about 0.5-1 μg/ml. After removing the culture supernatant, washing was carried out once with PBS.
2.4 The plates were incubated at room temperature for 20 minutes with 100 μl/well of Fc receptor blocking buffer (1 mg/ml of γ-globulin, 100 mM NaCl, 100 μM MgCl2, 100 μM MnCl2, 100 μM CaCl2, 1 mg/ml of BSA in 50 mM HEPES, pH 7.5). After removal of the Fc receptor blocking buffer, washing was carried out once with PBS.
2.5 20 μl of binding buffer (100 μM NaCl, 100 μM MgCl2, 100 μM MnCl2, 100 μM CaCl2, 1 mg/ml of BSA in 50 mM HEPES, pH 7.5) were initially introduced, and the substances to be tested were added in 10 μl of binding buffer and incubated for 20 minutes. The controls used were antibodies against VCAM-1(BBT, No. BBA6) and against VLA-4(Immunotech, No. 0764).
2.6 U937 cells were incubated in Fc receptor blocking buffer for 20 minutes and then pipetted in at a concentration of 1×10^6/ml and in an amount of 100 μl per well ([…]).
2.7 The plates were slowly immersed at an angle of 45° in stop buffer (100 mM NaCl, 100 μM MgCl2, 100 μM MnCl2, 100 μM CaCl2 in 25 mM Tris, pH 7.5) and shaken off. The process was repeated.
2.8 50 μl/well of a dye solution ([…] of Hoechst Dye 33258, 4% formaldehyde, 0.5% Triton X-100 in PBS) were then incubated on the plates for 15 minutes. […]

T1 sequence (P13612 34-1032): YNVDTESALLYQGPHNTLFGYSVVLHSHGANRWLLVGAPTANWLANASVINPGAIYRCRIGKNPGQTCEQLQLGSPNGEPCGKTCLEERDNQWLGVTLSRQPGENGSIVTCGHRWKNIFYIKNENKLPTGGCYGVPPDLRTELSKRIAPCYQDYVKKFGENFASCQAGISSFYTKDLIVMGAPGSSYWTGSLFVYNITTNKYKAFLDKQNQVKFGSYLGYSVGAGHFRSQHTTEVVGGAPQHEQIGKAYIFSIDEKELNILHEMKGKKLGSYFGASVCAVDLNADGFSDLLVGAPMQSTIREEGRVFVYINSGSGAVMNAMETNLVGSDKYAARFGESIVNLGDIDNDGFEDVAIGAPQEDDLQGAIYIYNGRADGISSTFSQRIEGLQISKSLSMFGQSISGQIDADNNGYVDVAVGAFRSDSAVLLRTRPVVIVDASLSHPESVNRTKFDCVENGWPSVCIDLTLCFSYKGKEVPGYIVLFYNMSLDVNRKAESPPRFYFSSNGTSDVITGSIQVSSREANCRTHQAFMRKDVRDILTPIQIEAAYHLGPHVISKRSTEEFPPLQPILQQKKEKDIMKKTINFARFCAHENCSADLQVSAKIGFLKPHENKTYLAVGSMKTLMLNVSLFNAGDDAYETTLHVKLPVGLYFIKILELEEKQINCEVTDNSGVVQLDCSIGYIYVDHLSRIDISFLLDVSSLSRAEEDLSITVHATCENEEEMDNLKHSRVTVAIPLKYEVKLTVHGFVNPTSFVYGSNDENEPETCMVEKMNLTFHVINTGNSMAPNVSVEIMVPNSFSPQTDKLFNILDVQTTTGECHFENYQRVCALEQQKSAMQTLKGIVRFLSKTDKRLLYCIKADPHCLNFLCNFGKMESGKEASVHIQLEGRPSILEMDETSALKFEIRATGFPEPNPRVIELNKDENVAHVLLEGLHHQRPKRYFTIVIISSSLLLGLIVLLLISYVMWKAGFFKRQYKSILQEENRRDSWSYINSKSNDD
T1 sequence (P05556 21-798): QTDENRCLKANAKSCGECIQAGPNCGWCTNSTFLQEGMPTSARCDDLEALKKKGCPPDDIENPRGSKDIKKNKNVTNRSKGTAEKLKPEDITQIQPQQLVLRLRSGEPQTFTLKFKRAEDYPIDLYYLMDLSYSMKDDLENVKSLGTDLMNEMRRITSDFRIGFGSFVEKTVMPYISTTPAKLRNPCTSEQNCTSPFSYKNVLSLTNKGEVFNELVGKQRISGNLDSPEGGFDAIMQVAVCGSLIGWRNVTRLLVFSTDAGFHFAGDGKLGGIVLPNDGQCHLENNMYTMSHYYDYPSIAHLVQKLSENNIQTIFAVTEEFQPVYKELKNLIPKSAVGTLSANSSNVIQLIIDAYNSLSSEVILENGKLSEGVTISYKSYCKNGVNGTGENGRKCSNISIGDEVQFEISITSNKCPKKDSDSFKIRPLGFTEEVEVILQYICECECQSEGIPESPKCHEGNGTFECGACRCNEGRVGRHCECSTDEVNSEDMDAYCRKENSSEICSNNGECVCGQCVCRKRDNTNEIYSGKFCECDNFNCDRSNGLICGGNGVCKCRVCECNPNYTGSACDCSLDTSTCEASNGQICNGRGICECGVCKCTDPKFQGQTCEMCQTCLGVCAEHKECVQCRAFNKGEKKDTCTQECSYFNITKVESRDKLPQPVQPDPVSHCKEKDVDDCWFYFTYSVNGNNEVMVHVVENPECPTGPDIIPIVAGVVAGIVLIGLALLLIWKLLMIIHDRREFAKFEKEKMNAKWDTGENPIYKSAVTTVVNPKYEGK

- IC50: 6.7 nM
Structure (SMILES): COc1cccc([C@H](CC(=O)O)NC(=O)[C@H](CC(C)C)N2C(=O)N(Cc3ccc(NC(=O)Nc4ccccc4)cc3)C3(CCCCC3)C2=O)c1 [Example 22, (S)-3-((S)-2-(4,4-Pentamethylene-3-(4-(3-phenylureido)benzyl)-2,5-dioxoimidazolidin-1-yl)-2-(2-methylpropyl)acetylamino)-3-(3-methoxyphenyl)propionic acid]
